From patent US20180125993A1 (BEIJING COTIMES BIOTECH COMPANY LIMITED, priority 2014, published 2018)
Marks after values point to notes of the source that are not given here.

Columns and labels:
MIA-PaCa-2 = assay: Human pancreatic cancer MIA-PaCa-2 subcutaneous model (34 days of treatment); conditions: for Tumor regression: treatment groups
H2122 = assay: Human lung cancer H2122 subcutaneous model (Day 38 after treatment); conditions: for Tumor regression: treatment groups
lung cancer, CS225, 1# = assay: Patients primary tumor tissue subcutaneous model (Day 37 after treatment); type: in vivo, nude mice; conditions: cisplatin 5 mg/kg i.p. QW × 2w
From the text: (§1) Fresh primary tumor tissues from patients were implanted in NOD/SCID mice's flank, which developed into a primary tumor, which was then transferred to the nude mice's flank to allow the tumor reaching an exponential growth phase, and the tumor was named 1# tumor, and so on. When the tumor volume and number reached passage requirements, they were implanted into the right flank of nude mice. When the tumors' average volumes reached 100-200 mm^3, the mice were grouped.
(§2) The bodyweight and major/minor axis of mice were measured twice a week, and Tumor Growth Inhibition (TGI) and tumor volume were calculated same as in 5.1.5. In addition, to evaluate the synergetic effect of drug combination in tumor growth, Jin Zhengjun Q value judgment method was used with the follow formula: Q=Ea+b/(Ea+Eb−Ea×Eb). Ea+b is the inhibition ratio of drug combination, Ea and Eb are the inhibition ratio of each of drug treatment when it is administered alone. […] The animals were monitored, and when the experiments were concluded, mice were sacrificed and tumors were extracted and weighted. All the animal experiments confer to the regulations of animal's welfare and the management of experimental animal usage.
(§3) Tumor volumes were represented with average±standard error. Data analysis was done using Spss16.0, One-Way ANOVA, LSD (homogeneity of variance) or Dunnett T3 (non-homogeneity of variance). […] P<0.05 represents significant difference.

colon cancer, CS146, 2# = assay: Patients primary tumor tissue subcutaneous model (Day 30 after treatment); type: in vivo, nude mice; conditions: 5-Fu 50 mg/kg i.p. QW × 6w alone
From the text: as §1, §2
Tumor volumes were represented with average±standard error. Data analysis was done using Spss16.0, One-Way ANOVA, LSD (homogeneity of variance) or Dunnett T3 (non-homogeneity of variance). […]

WiDr = assay: Human colon cancer Widr subcutaneous model (Day 27 after treatment); type: in vivo, nude mice
Experimental: (§4) Tumor cells (i.e., MIA-PaCa-2, WiDr, H2122, colo205) were inoculated in nude mice's flank at 5×10^6 cells per mouse. The mice were grouped when the average volume of tumors reached about 100˜200 mm^3. “QW”=weekly dose. “Q3d”=dosed every third day. “BiW”=biweekly.
(§5) The bodyweight and major/minor axis of the mice were measured twice a week, and the tumor volumes were calculated using the formula: Tumor volume=1/2×major axis[…]. […] “T” represents average tumor volume of the experimental group (cm^3), and “C” represents average tumor volume of the control group (cm^3). The animals were monitored at all times. The bodyweight and major/minor axis or mice were measured twice a week.
(§6) Tumor volumes were represented with average±standard error. […] P<0.05 represents significant difference.

Colo205 = assay: Human colon cancer Colo205 subcutaneous model (Day 28 after treatment); type: in vivo, nude mice
Experimental: as §4, §5, §6

colon cancer, CS263, 1# = assay: Patients primary tumor tissue subcutaneous model (Day 35 after treatment); type: in vivo, nude mice
From the text: as §1, §2, §3

colon cancer, CS182, 5# = assay: Patients primary tumor tissue subcutaneous model (Day 27 after treatment); type: in vivo, nude mice; conditions: Irinotecan 50 mg/kg i.v. BiW × 6 times
From the text: as §1, §2, §3

[1] = molecular target: T1, DcR2-His (recombinant human TRAIL R4/TNFRSF10D, Sino Biological) (human, UniProt Q9UBN6 56-211, limits assumed); assay: CLEIA, antigen coated on microplate, HRP secondary antibody
T1 construct: Commercial protein; not shown: His tag
T1 sequence (looked up): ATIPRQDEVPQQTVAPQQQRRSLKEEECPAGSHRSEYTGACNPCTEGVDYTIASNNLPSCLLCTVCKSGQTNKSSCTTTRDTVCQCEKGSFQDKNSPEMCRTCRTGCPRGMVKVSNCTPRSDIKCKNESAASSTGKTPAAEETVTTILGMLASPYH

[2] = molecular target: T2, OPG-His (recombinant human osteroprotegerin/TNFRSF11B, Wuxi Pharmatech) (human, UniProt O00300 22-401, limits assumed); assay: as above
T2 construct: Commercial protein; also called osteoprotegerin; not shown: His tag
T2 sequence (looked up): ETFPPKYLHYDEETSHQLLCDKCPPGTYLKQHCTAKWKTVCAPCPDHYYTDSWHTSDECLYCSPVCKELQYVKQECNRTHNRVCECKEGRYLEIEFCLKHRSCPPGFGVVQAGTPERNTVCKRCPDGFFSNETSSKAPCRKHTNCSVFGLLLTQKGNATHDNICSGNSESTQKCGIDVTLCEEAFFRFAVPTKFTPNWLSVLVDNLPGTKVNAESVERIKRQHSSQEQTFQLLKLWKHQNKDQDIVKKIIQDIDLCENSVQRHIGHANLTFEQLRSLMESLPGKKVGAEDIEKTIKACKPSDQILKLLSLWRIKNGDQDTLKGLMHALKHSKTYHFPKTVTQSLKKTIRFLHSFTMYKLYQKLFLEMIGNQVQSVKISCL

[3] = molecular target: T3, DR4-His-EC (Lot: 090222-P, E coli.) (human, UniProt O00220 24-239, limits assumed); assay: as above
T3 construct: it may mean extracellular or E. coli; also called TRAIL-R1; not shown: His tag
T3 sequence (looked up): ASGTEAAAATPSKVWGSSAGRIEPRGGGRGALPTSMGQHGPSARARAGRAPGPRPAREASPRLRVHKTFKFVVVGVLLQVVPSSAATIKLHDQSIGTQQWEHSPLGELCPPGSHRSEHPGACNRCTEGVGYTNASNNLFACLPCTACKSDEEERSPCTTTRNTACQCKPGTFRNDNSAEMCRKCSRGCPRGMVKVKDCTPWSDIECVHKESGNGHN

[4] = molecular target: T4, DcR1-His (recombinant human TRAIL R3/TNFRSF10C, Novoprotein Science) (human, UniProt O14798 26-221, limits assumed); assay: as above
T4 construct: Commercial protein; not shown: His tag
T4 sequence (looked up): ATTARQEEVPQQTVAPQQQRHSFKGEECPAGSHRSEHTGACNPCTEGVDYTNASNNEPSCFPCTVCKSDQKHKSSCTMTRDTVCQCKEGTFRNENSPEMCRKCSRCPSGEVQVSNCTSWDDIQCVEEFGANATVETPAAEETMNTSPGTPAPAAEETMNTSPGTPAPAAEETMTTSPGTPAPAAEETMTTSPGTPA

[5] = Gemcitabine 60 mg/kg i.p. Q3d × 6W
[6] = Gemcitabine 60 mg/kg i.p. Q3d × 6W, listed as gemcitabine
[7] = repeated experiment, gemcitabine group
[8] = repeated experiment, Taxol group
[9] = Irinotecan 50 mg/kg i.v. BiW × 6 times
[10] = repeated experiment, Irinotecan group

Nc1ccn([C@@H]2O[C@H](CO)[C@@H](O)C2(F)F)c(=O)n1 [Gemcitabine, reference compound]
TGI (Calculated using tumor volumes) (MIA-PaCa-2; [5]): 52.60%** | TGI (Calculated using tumor weight) (MIA-PaCa-2; [5]): 55.66%* | Time of tumor volume changed significantly (MIA-PaCa-2; [5]): 10 days after first treatment | Tumor Volume Mean ± SEM (MIA-PaCa-2; [5]): 1.60 ± 0.11 cm^3 | Tumor weight Mean ± SEM (MIA-PaCa-2; [5]): 0.84 ± 0.07 g | TGI (Calculated using tumor volumes) (MIA-PaCa-2; [6]): 52.60% | TGI (Calculated using tumor weight) (MIA-PaCa-2; [6]): 55.66% | Tumor regression (MIA-PaCa-2; first experiment): not found in the chemotherapy group | Tumor regression (MIA-PaCa-2; repeated experiment): not found in the chemotherapy group alone | TGI calculated based on the tumor volume (MIA-PaCa-2; [7]): 34.33% | TGI calculated based on the tumor weight (MIA-PaCa-2; [7]): 31.30% | Bodyweights of mice (MIA-PaCa-2; treatment groups over the time): decreased significantly by the third dosing

CC(=O)O[C@H]1C(=O)[C@@]2(C)[C@H]([C@H](OC(=O)c3ccccc3)[C@]3(O)C[C@H](OC(=O)[C@H](O)[C@@H](NC(=O)c4ccccc4)c4ccccc4)C(C)=C1C3(C)C)[C@]1(OC(C)=O)CO[C@@H]1C[C@@H]2O [Taxol, reference compound]
T/C % (Calculated using tumor volumes) (H2122; Taxol 24 mg/kg i.p. Q6d × 6W): 55.33% | TGI (Calculated using tumor weight) (H2122; Taxol 24 mg/kg i.p. Q6d × 6W): 47.18% | Time of tumor volume changed significantly (H2122; Taxol 24 mg/kg i.p. Q6d × 6W): 11 | Tumor Volume Mean ± SEM (H2122; Taxol 24 mg/kg i.p. Q6d × 6W): 1.08 ± 0.12 cm^3 | Tumor weight Mean ± SEM (H2122; Taxol 24 mg/kg i.p. Q6d × 6W): 0.87 ± 0.12 g | Bodyweights (H2122; Taxol group, HuCTB006 0.2 mg/kg group): decreased, but were maintained at an acceptable level | Tumor regression (H2122; first experiment): none was observed | Tumor regression (H2122; repeated experiment): none was observed | TGI (Calculated using tumor volume) (H2122; [8]): 54.28% | TGI (Calculated using tumor weight) (H2122; [8]): 50.44%

N.N.[Cl][Pt][Cl] [Cisplatin, cisplatin, reference compound]
T/C % (Calculated using tumor volumes) (lung cancer, CS225, 1#): 72.14% | TGI (Calculated using tumor volumes) (lung cancer, CS225, 1#): 31.45% | TGI (Calculated using tumor weight) (lung cancer, CS225, 1#): 32.66% | Time of tumor volume changed significantly (lung cancer, CS225, 1#): 7 | Tumor Volume Mean ± SEM (lung cancer, CS225, 1#): 0.73 ± 0.06 cm^3 | Tumor weight Mean ± SEM (lung cancer, CS225, 1#): 0.48 ± 0.08 g | TGI (Calculated using tumor volumes) (lung cancer, CS225, 1#; listed as cisplatin): 31.45% | TGI (Calculated using tumor weight) (lung cancer, CS225, 1#; listed as cisplatin): 32.66%

O=c1[nH]cc(F)c(=O)[nH]1 [5-Fu, 5-fluorouracil, reference compound]
TGI (calculated using the tumor volumes of Day 30) (colon cancer, CS146, 2#): 37.95%

CCc1c2c(nc3ccc(OC(=O)N4CCC(N5CCCCC5)CC4)cc13)-c1cc3c(c(=O)n1C2)COC(=O)[C@]3(O)CC [Irinotecan, reference compound]
Tumor weight Mean ± SEM (WiDr; [9]): 0.26 ± 0.04 g | TGI (Calculated using tumor weight) (WiDr; [10]): 72.30% | Tumor weight Mean ± SEM (Colo205; [9]): 0.11 ± 0.02 g | Tumor regression (Colo205; first experiment, treatment groups): none was found | TGI calculated using the tumor weights (Colo205; [10]): 93.76% | TGI (Calculated using tumor weight) (colon cancer, CS263, 1#; [9]): 99.58%* | Tumor weight Mean ± SEM (colon cancer, CS263, 1#; [9]): 0.003 ± 0.002 g | TGI (Calculated using tumor weight) (colon cancer, CS263, 1#; Irinotecan 50 mg/kg i.v. BiW × 6 times, listed as irinotecan): 99.58% | Animals showing tumor regression (colon cancer, CS263, 1#; combination: Day 24 and Day 31, irinotecan: Day 35): one animal | TGI (Calculated using tumor weight) (colon cancer, CS182, 5#): 93.46%* | Tumor weight Mean ± SEM (colon cancer, CS182, 5#): 0.04 ± 0.00 g | TGI (Calculated using tumor weight) (colon cancer, CS182, 5#; listed as irinotecan): 93.46%

B1: HuCTB006, human chimeric anti-TRAIL-R2 (DR5) monoclonal antibody (antibody, human IgG1, V domains shown)
VH: EVQLQQSGPELVKPGASVRMSCKASGYTFTSYFIHWVKQRPGQGLEWIGWIYPGNVNTKYSEKFKGKATLTADKSSSTAYMQFSSLTSEDSAVYFCARGEAGYFDYWGQGTTLTVSS
VL: DIVMTQSHKFMSTSVGDRVSITCKASQDVSTAVAWYQQKPGQSPRLLIYWASTRHTGVPDRFTGSGSGTDYTLTISSVQAEDQALYYCQQHYRTPWTFGGGTKLEIKR
notes: also called human CTB006
binding result [1]: no binding (tested: 200, 40 and 8 ng/mL) | binding result [2]: no binding (tested: 200, 40 and 8 ng/mL) | binding result [3]: no binding (tested: 200, 40 and 8 ng/mL) | binding result [4]: no binding (tested: 200, 40 and 8 ng/mL)
